Target: 6D8 scFv
Assay: Isothermal titration calorimetry (ITC) of MSP2 and peptides into 6D8 scFv
Assay type: binding, mouse
Conditions: ITC into 6D8 scFv; 20 mM sodium phosphate, 150 mM NaCl, pH 7.4, 25°C; scFv 20 µM, titrant from 200 µM stocks; error estimates from replicate titrations against 6D8 scFv and mAb (n = 3–5); limit of determinable affinities approx. 5 nM
Excerpt: The interaction between 6D8 and MSP2, was examined further using isothermal titration calorimetry (ITC). […] Full-length recombinant MSP2 binds 6D8 scFv with lower affinity, permitting quantification by ITC. Even though 6D8 recognizes a fully conserved epitope in MSP2, the affinities of 6D8 scFv for full-length 3D7 and FC27 MSP2 differ by as much as 5-fold (Fig. 3C,D). To explore the basis of this strain-specificity, we synthesized peptides encompassing the minimal 6D8 epitope and extending C-terminally into the variable region. […] Identical affinities were observed when 6D8 IgG was used in place of the scFv (Fig. S4).
The affinity of 6D8 IgG and scFv for synthetic peptides and recombinant MSP2 was determined by ITC (Microcal ITC-200, GE Healthcare) and SPR (Biacore T200, GE Healthcare) using a Mouse Antibody Capture kit (GE Healthcare) (SI Materials and methods). Antibody binding to lipid-tethered MSP2 was assessed SPR using an L1 chip (GE Healthcare). Vesicles of POPC containing 1 mol % DOGS-NTA were adsorbed onto the chip, and loaded with Ni^2+ and then FC27 MSP2–6His. […]
MSP2 peptides were purified on a reverse-phase C18 column (Zorbax, 10 x 300 mm) using a linear gradient of 5 to 40% of solvent B (90% acetonitrile / 9.9% water / 0.1% TFA) against solvent A (0.1% TFA in water) over 40 min. The purity of MSP2 peptides was assessed by mass spectrometry (LC-MS). […]

## Ac-NAYNMSIRR-NH2 [MSP2_14-22]
  Kd: ~5 nM

From PMC4428071, “Structural basis for epitope masking and strain specificity of a conserved epitope in an intrinsically disordered malaria vaccine candidate” (Scientific Reports, 2015)
